{"source": "ChEMBL document CHEMBL5579888", "about": "“A Comparative Study on the DNA Interactions and Biological Activities of Benzophenanthridine and Protoberberine Alkaloids” (J Nat Prod, 2024)", "key": {"[1]": {"target": "Quadruplex DNA", "experiment": "Displacement of ThT from human G4-quadruplex Bcl2 DNA 5'- CGGGCGCGGGAGGAAGGGGGCGGGAGC-3' incubated for 0.5 hrs by SpectraMax M2 microplate reader analysis", "assay_type": "nucleic-acid assay"}, "[2]": {"test_system": "Quadruplex DNA", "experiment": "Binding affinity to human G4-quadruplex c-kit2 DNA 5'- CGGGCGGGCGCGAGGGAGGGT-3' at 20 uM by UV-Visible absorption spectroscopic analysis", "assay_type": "nucleic-acid assay"}, "[3]": {"test_system": "Calf thymus DNA", "experiment": "Displacement of Hoechst 33342 from calf thymus DNA incubated for 0.5 hrs by SpectraMax M2 microplate reader analysis", "assay_type": "nucleic-acid assay, Bos taurus"}, "[4]": {"test_system": "Quadruplex DNA", "experiment": "Binding affinity to human G4-quadruplex Bcl2 DNA 5'- CGGGCGCGGGAGGAAGGGGGCGGGAGC-3' at 20 uM by UV-Visible absorption spectroscopic analysis", "assay_type": "nucleic-acid assay"}, "[5]": {"target": "Quadruplex DNA", "experiment": "Displacement of ThT from human G4-quadruplex 22AG DNA 5'- AGGGTTAGGGTTAGGGTTAGGG -3' incubated for 0.5 hrs by SpectraMax M2 microplate reader analysis", "assay_type": "nucleic-acid assay"}, "[6]": {"target": "Quadruplex DNA", "experiment": "Displacement of ThT from human G4-quadruplex VEGF DNA 5'- GGGCGGGCCGGGGGCGGG-3' incubated for 0.5 hrs by SpectraMax M2 microplate reader analysis", "assay_type": "nucleic-acid assay"}, "[7]": {"test_system": "Quadruplex DNA", "experiment": "Binding affinity to human G4-quadruplex KRAS DNA 5'- AGGGCGGTGTGGGAAGAGGGAAGAGGGGGAGG-3' at 20 uM by UV-Visible absorption spectroscopic analysis", "assay_type": "nucleic-acid assay"}, "[8]": {"target": "Quadruplex DNA", "experiment": "Displacement of ThT from human G4-quadruplex Oxy28 DNA 5'- GGGGTTTTGGGGTTTTGGGGTTTTGGGG -3' incubated for 0.5 hrs by SpectraMax M2 microplate reader analysis", "assay_type": "nucleic-acid assay"}, "[9]": {"test_system": "Quadruplex DNA", "experiment": "Binding affinity to human G4-quadruplex KRAS DNA 5'- AGGGCGGTGTGGGAAGAGGGAAGAGGGGGAGG-3' at 10 uM by CD spectra analysis", "assay_type": "nucleic-acid assay"}, "[10]": {"target": "Quadruplex DNA", "experiment": "Displacement of ThT from human G4-quadruplex Pu27 DNA 5'- TGGGGAGGGTGGGGAGGGTGGGGAAGG-3' incubated for 0.5 hrs by SpectraMax M2 microplate reader analysis", "assay_type": "nucleic-acid assay"}, "[11]": {"test_system": "A-375", "experiment": "Induction of cell cycle arrest in human A-375 cells assessed assessed as cell accumulation at S phase at 5 uM incubated for 24 hrs by propidium iodide staining based flow cytometry (reference value: 30.05 %)", "assay_type": "functional"}, "[12]": {"test_system": "Quadruplex DNA", "experiment": "Binding affinity to human G4-quadruplex 22AG DNA 5'- AGGGTTAGGGTTAGGGTTAGGG -3' at 20 uM by UV-Visible absorption spectroscopic analysis", "assay_type": "nucleic-acid assay"}, "[13]": {"test_system": "A-375", "experiment": "Induction of cell cycle arrest in human A-375 cells assessed assessed as cell accumulation at G2/M phase at 5 uM incubated for 24 hrs by propidium iodide staining based flow cytometry (reference value: 15.70 %)", "assay_type": "functional"}, "[14]": {"test_system": "dsDNA", "experiment": "Binding affinity to double stranded DNA ssab (unknown origin) at 20 uM by UV-Visible absorption spectroscopic analysis", "assay_type": "nucleic-acid assay"}, "[15]": {"test_system": "A-375", "experiment": "Inhibition of DNA synthesis in human A-375 cells at 5 uM incubated for 24 hrs by Edu incorporation based flow cytometry analysis", "assay_type": "functional, cell-based"}, "[16]": {"target": "Quadruplex DNA", "experiment": "Displacement of ThT from human G4-quadruplex c-kit2 DNA 5'- CGGGCGGGCGCGAGGGAGGGT-3' incubated for 0.5 hrs by SpectraMax M2 microplate reader analysis", "assay_type": "nucleic-acid assay"}, "[17]": {"test_system": "A-375", "experiment": "Induction of cell cycle arrest in human A-375 cells assessed assessed as cell accumulation at G0/G1 phase at 5 uM incubated for 24 hrs by propidium iodide staining based flow cytometry (reference value: 54.25 %)", "assay_type": "functional"}, "[18]": {"test_system": "Quadruplex DNA", "experiment": "Binding affinity to human G4-quadruplex Oxy28 DNA 5'- GGGGTTTTGGGGTTTTGGGGTTTTGGGG -3' at 10 uM by CD spectra analysis", "assay_type": "nucleic-acid assay"}, "[19]": {"test_system": "Quadruplex DNA", "experiment": "Binding affinity to human G4-quadruplex Oxy28 DNA 5'- GGGGTTTTGGGGTTTTGGGGTTTTGGGG -3' at 20 uM by UV-Visible absorption spectroscopic analysis", "assay_type": "nucleic-acid assay"}, "[20]": {"test_system": "A-375", "experiment": "Induction of apoptosis in human A-375 cells assessed assessed as early apoptotic cells at 5 uM incubated for 24 hrs by Annexin V-Elab Fluor 647/propidium iodide staining based flow cytometry (reference value: 1.14 %)", "assay_type": "functional"}, "[21]": {"test_system": "A-375", "experiment": "Induction of DNA damage in human A-375 cells assessed as appearance of long DNA tails at 5 uM incubated for 24 hrs by comet assay", "assay_type": "functional, cell-based"}, "[22]": {"test_system": "A-375", "experiment": "Induction of apoptosis in human A-375 cells assessed assessed as necrotic cells at 5 uM incubated for 24 hrs by Annexin V-Elab Fluor 647/propidium iodide staining based flow cytometry (reference value: 1.45 %)", "assay_type": "functional"}, "[23]": {"test_system": "A-375", "experiment": "Inhibition of RNA synthesis in human A-375 cells at 5 uM incubated for 24 hrs by EU incorporation based flow cytometry analysis", "assay_type": "functional, cell-based"}, "[24]": {"target": "Salmon testes DNA", "experiment": "Displacement of Hoechst 33342 from salmon sperm DNA incubated for 0.5 hrs by SpectraMax M2 microplate reader analysis", "assay_type": "nucleic-acid assay, Salmo salar"}, "[25]": {"test_system": "A-375", "experiment": "Induction of apoptosis in human A-375 cells assessed assessed as late apoptotic cells at 5 uM incubated for 24 hrs by Annexin V-Elab Fluor 647/propidium iodide staining based flow cytometry (reference value: 6.31 %)", "assay_type": "functional"}, "[26]": {"test_system": "A-375", "experiment": "Induction of apoptosis in human A-375 cells assessed assessed as viable cells at 5 uM incubated for 24 hrs by Annexin V-Elab Fluor 647/propidium iodide staining based flow cytometry (reference value: 91.1 %)", "assay_type": "functional", "settings": "read-out: Activity"}, "[27]": {"target": "dsDNA", "experiment": "Displacement of Hoechst 33342 from double stranded DNA ssab (unknown origin) incubated for 0.5 hrs by SpectraMax M2 microplate reader analysis", "assay_type": "nucleic-acid assay"}, "[28]": {"test_system": "Quadruplex DNA", "experiment": "Binding affinity to human G4-quadruplex VEGF DNA 5'- GGGCGGGCCGGGGGCGGG-3' at 20 uM by UV-Visible absorption spectroscopic analysis", "assay_type": "nucleic-acid assay"}, "[29]": {"test_system": "Quadruplex DNA", "experiment": "Binding affinity to human G4-quadruplex Pu27 DNA 5'- TGGGGAGGGTGGGGAGGGTGGGGAAGG-3' at 20 uM by UV-Visible absorption spectroscopic analysis", "assay_type": "nucleic-acid assay"}, "[30]": {"target": "Quadruplex DNA", "experiment": "Displacement of ThT from human G4-quadruplex KRAS DNA 5'- AGGGCGGTGTGGGAAGAGGGAAGAGGGGGAGG-3' incubated for 0.5 hrs by SpectraMax M2 microplate reader analysis", "assay_type": "nucleic-acid assay"}}, "note": "The source made the active and inactive calls. The calls are words filed in the database; no cut-off is given here."}
{"molecule": "COc1cc2c[n+](C)c3c4cc5c(cc4ccc3c2cc1OC)OCO5", "note": "[NITIDINE]", "values": [{"measurement": "Kd", "setting": "[1]", "value": 1.52, "unit": "µM"}, {"measurement": "Activity", "setting": "[2]", "value": "Active"}, {"measurement": "DC50", "setting": "[3]", "value": 14.4, "unit": "µM"}, {"measurement": "Activity", "setting": "[4]", "value": "Active"}, {"measurement": "DC50", "setting": "[5]", "value": 15.5, "unit": "µM"}, {"measurement": "DC50", "setting": "[6]", "value": 0.59, "unit": "µM"}, {"measurement": "Activity", "setting": "[7]", "value": "Active"}, {"measurement": "DC50", "setting": "[8]", "value": 1.98, "unit": "µM"}, {"measurement": "Activity", "setting": "[9]", "value": "inactive"}, {"measurement": "DC50", "setting": "[10]", "value": 0.99, "unit": "µM"}, {"measurement": "Activity", "setting": "[11]", "value": 30.21, "unit": "%"}, {"measurement": "Activity", "setting": "[12]", "value": "Active"}, {"measurement": "Activity", "setting": "[13]", "value": 29.3, "unit": "%"}, {"measurement": "Activity", "setting": "[14]", "value": "Active"}, {"measurement": "inhibition", "setting": "[15]", "value": "Active"}, {"measurement": "DC50", "setting": "[16]", "value": 1.05, "unit": "µM"}, {"measurement": "Activity", "setting": "[17]", "value": 40.5, "unit": "%"}, {"measurement": "Activity", "setting": "[18]", "value": "inactive"}, {"measurement": "Activity", "setting": "[19]", "value": "Active"}, {"measurement": "Activity", "setting": "[20]", "value": 2.03, "unit": "%"}, {"measurement": "Activity", "setting": "[21]", "value": "Active"}, {"measurement": "Activity", "setting": "[22]", "value": 6.7, "unit": "%"}, {"measurement": "inhibition", "setting": "[23]", "value": "Active"}, {"measurement": "DC50", "setting": "[24]", "value": 10.8, "unit": "µM"}, {"measurement": "Activity", "setting": "[25]", "value": 60.4, "unit": "%"}, {"measurement": "viability at 5 µM", "setting": "[26]", "value": 30.8, "unit": "%"}, {"measurement": "DC50", "setting": "[27]", "value": 2.97, "unit": "µM"}, {"measurement": "Activity", "setting": "[28]", "value": "Active"}, {"measurement": "Activity", "setting": "[29]", "value": "Active"}, {"measurement": "DC50", "setting": "[30]", "value": 9.08, "unit": "µM"}]}
